Entries after “also recorded” stand apart in the source; their conditions may differ.
Key:
tHIO = assay: Ex vivo muscle strength (organ bath, isometric force) of tHIO muscle strips; parameters: species or system human
Method: (§1) After an equilibration period, muscle force contraction was assayed using a logarithmic series of bethanechol doses ranging in concentration from 1 nM to 10 mM. Representative tensile response recordings are plotted for tHIO, tHIO+S and adult jejunum (FIG. 7B). […] To better visualize the differences between tHIO and tHIO+S the data was also plotted sans adult jejunum (FIG. 7C, right panel).
(§2) tHIO and tHIO+S grafts were harvested and placed in ice-cold Hank's Balanced Salt Solution (HBSS). Human surgical samples were maintained overnight at 4° C. in HBSS prior to assaying in order to minimize the effects of anesthetics. Muscle strips (4-6 mm in length and 1-2 mm in width) were dissected from the samples. Strips were then suspended vertically in an organ bath chamber (Radnoti) filled with freshly prepared Krebs-Ringer solution (Sigma; supplemented with 2.5 mM CaCl and 15 mM NaHCO3; pH 7.4), warmed to 37° C. and gassed with 95% O2+5% CO2. Segments were allowed to equilibrate for an hour at an initial tension of 0.5 g. The contractile response of the muscle was continuously recorded, using 4-chamber tissue-organ bath chambers with isometric force transducers (0-25 g; AD Instruments) coupled to a multi-channel bridge amplifiers and data recorder (AD Instruments; PowerLab 4/35) linked to a computer equipped with LabChart Pro software (AD Instruments). […]

infant jejunum = assay: Ex vivo muscle strength (organ bath, isometric force) of infant jejunum muscle strips; parameters: species or system human; settings: 10 μM after bethanechol dose series
Method: as §1, §2

tHIO+S = assay: Ex vivo muscle strength (organ bath, isometric force) of tHIO+S muscle strips; parameters: species or system human
Method: as §1, §2

adult human jejunum = assay: Ex vivo muscle strength (organ bath, isometric force) of adult jejunum muscle strips
Method: as §1, §2

[1] = 10 μM after bethanechol dose series

SMILES | tension before and after administration of scopolamine (relaxation) (tHIO; [1]) | tension before and after administration of scopolamine (relaxation) (infant jejunum) | tension before and after administration of scopolamine (relaxation) (tHIO+S; [1]) | tension before and after administration of scopolamine (relaxation) (adult human jejunum; adult jejunum muscle strips, 10 μM after bethanechol dose series) | tensile response to bethanechol (tHIO; 1 nM to 10 mM, EC50 with 95% confidence could not be determined) | EC50 (tHIO+S; Homo sapiens, logarithmic doses 1 nM to 10 mM, read-out: effective concentration to achieve half of the maximal response (EC50), muscle contraction) | EC50 (adult human jejunum; adult human jejunum muscle strips, logarithmic doses 1 nM to 10 mM, read-out: effective concentration to achieve half of the maximal response (EC50), muscle contraction)
CN1[C@@H]2C[C@@H](OC(=O)[C@H](CO)c3ccccc3)C[C@H]1[C@@H]1O[C@@H]12 [scopolamine] | Relaxation was successfully induced; also recorded: relaxation is observed | Relaxation was successfully induced | Relaxation was successfully induced; also recorded: relaxation is observed | Relaxation was successfully induced |  |  | 
CC(C[N+](C)(C)C)OC(N)=O (stereo not shown) [bethanechol, Carbamyl-p-methylcholine chloride] |  |  |  |  | low overall tensile response | 14.7 µM | 3.28 µM
